# Results published in patent US6787318B1, “Assay for evaluating the therapeutic effectiveness of agents in reducing Alzheimer's disease pathology” (Roskamp Research Institute, LLC, priority 1999, dated 2004).
# Entries after “also recorded” stand apart in the source; their conditions may differ.
# B1: CD40L: human CD40L recombinant protein (protein)
# chain: ENSFEMQKGDQNPQIAAHVISEASSKTTSVLQWAEKGYYTMSNNLVTLENGKQLTVKRQGLYYIYAQVTFCSNREASSQAPFIASLCLKSPGRFERILLRAANTHSSAKPCGQQSIHLGGVFELQPGASVFVNVTDPSQVSHGTGFTSFGLLKL
# Key:
# [1] = system: CD40; test: CD40 protein in cultured HAEC, Western immunoblotting; type: cell-based, human; conditions: Aβ 5 μM, IFN-γ 100 U/mL, 48 hours
# Experimental: Cultured HAEC were plated at 1×10^6 cells/well in 100 mm culture dishes (Falcon, Becton Dickinson Inc. New Jersey). […] Cells were washed in ice-cold phosphate buffered saline (PBS) three times and lysed in an ice-cold lysis buffer containing 0.2 mM EDTA, 20 mM Tris/HCl (pH 8.0), 100 mM NaCl, 3% Nonidet P-40, 50 mM NaF, 10 mM sodium pyrophosphate, 2 mM orthovanadate, 10 μg/mL each of aprotinin and leupeptin and 1 mM PMSF. After incubation for thirty minutes on ice, samples were centrifuged at 15,000 rpm for fifteen minutes, and supernatants were collected. Total protein content was estimated using the Bio-Rad protein assay. An aliquot corresponding to 50 μg of total protein of each sample was separated by SDS-PAGE and transferred electrophoretically to Hy-bond PVDF membranes (Bio-Rad, California). Nonspecific antibody binding was blocked overnight at 4° C. with 5% non-fat dry milk in TBS (20 mM Tris, 500 mM NaCl, pH 7.5). […] Blots were also carried out on identical membranes with a reference anti-actin mouse monoclonal antibody (Boehringer Mannhem), which allowed for semi-quantitative CD40 protein determination. Densitometric analysis was performed for protein bands using the Fluor-S™ MultiImager with Quantity One™ software (Bio-Rad, California).
# [2] = system: HAEC; test: MTS cell death/proliferation in Aβ-treated HAEC; type: cell-based, human; conditions: 10 or 20 μM
# Experimental: In vitro measurement of Aβ-induced changes in expression of the inflammatory cell-surface molecules CD40 and […] in cultured HAEC and HASM cells was performed using a slightly modified ABC-based cell-ELISA (CELISA). […] After PBS washes, 4% neutral formalin solution (Sigma) was used for fixation of the cells. Following quenching of the endogenous peroxidase activity with 3% H2O2 and routine blocking of non-specific binding, the biotinylated specific secondary antibodies against the primary antibodies (goat anti-mouse or anti-rabbit IgG) were applied. The combination of EXTRAVIDIN® Proxidase and the subsequent color reaction was performed strictly according to the manufacturer's instructions in the EXTRAVIDIN® Peroxidase Staining Kit (Sigma). The absorbance of 405 nm was then measured using a microplate reader (SPECTRAmax 250, Molecular Devices). The optical density (O.D.) value for the wells in the absence of the primary antibody for each group was considered as background and subtracted as the blank. In addition, stimulation with IFN-γ for CD40 was included as a positive control in the appropriate plate. Since CD45 is not expressed by endothelial or smooth muscle cells, the assays for expression of CD45 in these Aβ-treated cells were used as negative controls throughout the experiment. […]
# [3] = system: IFN-γR; test: IFN-γR expression in HAEC, cell-ELISA (CELISA) and Western blotting; type: cell-based, human; conditions: for expression of IFN-γR on cytokine treatment: recombinant human cytokine
# Experimental: (§1) In vitro measurement of Aβ-induced changes in expression of the inflammatory cell-surface molecules CD40 and […] in cultured HAEC and HASM cells was performed using a slightly modified ABC-based cell-ELISA (CELISA). […] After PBS washes, 4% neutral formalin solution (Sigma) was used for fixation of the cells. Following quenching of the endogenous peroxidase activity with 3% H2O2 and routine blocking of non-specific binding, the biotinylated specific secondary antibodies against the primary antibodies (goat anti-mouse or anti-rabbit IgG) were applied. The combination of EXTRAVIDIN® Proxidase and the subsequent color reaction was performed strictly according to the manufacturer's instructions in the EXTRAVIDIN® Peroxidase Staining Kit (Sigma). The absorbance of 405 nm was then measured using a microplate reader (SPECTRAmax 250, Molecular Devices). The optical density (O.D.) value for the wells in the absence of the primary antibody for each group was considered as background and subtracted as the blank. In addition, stimulation with IFN-γ for CD40 was included as a positive control in the appropriate plate. Since CD45 is not expressed by endothelial or smooth muscle cells, the assays for expression of CD45 in these Aβ-treated cells were used as negative controls throughout the experiment. In addition, to evaluate the degree of cell death or proliferation in the Aβ-treated, cells, parallel experiments were performed using the MTS (3-(4,5-dimethylthiazol-2-yl)-5-(3-carboxymethoxyphenyl)-2-(4-sulfophenyl)-2H-tetrazolium) cell-proliferation kit (Promega).
# (§2) Activation of CD40 signalling can be achieved by stimulation with either CD40L or certain anti-CD40 mAbs. Since synthetic CD40L is not commercially available, one of the anti-CD40 mAbs (clone 3/23), which has been reported to activate CD40 signalling, was used to mimic the effect of interaction of CD40-CD40L. All Aβ-treated cells were incubated with 1 μg/ml anti-CD40 mAb […]) for four hours followed by CELISA.
# The total protein was estimated using the Bio-Rad protein assay. An aliquot corresponding to 100 μg of total protein of each sample was separated by SDS/PAGE (polyacrylamide gel electrophoresis) and transferred electrophoretically to PVDF filters. Non-specific binding of antibody was blocked with 5% non-fat dry milk, in 20 mM Tris/HCl, pH 7.5/150 mM NaCl/0.1% Triton X-100. Immunoblotting was carried out with the appropriate antibody followed by alkaline phosphatase-conjugated secondary anti-immunoglobulin antibodies. These were then developed by the chemiluminescence method (Bio-Rad).
# [4] = system: CD40; test: CD40 expression in HAEC, cell-ELISA (CELISA); type: cell-based, human; conditions: for expression of CD40 on cytokine treatment: recombinant human cytokine
# Experimental: as §1
# [5] = system: IL-1β; test: Human IL-1β release ELISA, HAEC with or without CD40 ligation; type: cell-based; conditions: for IL-1β release following CD40 ligation: 48 hour pre-treatment, then CD40L for eight hours; for IL-1β release in the absence of CD40L stimulation: Aβ 500 nM, IFN-γ 10 U/mL, 48 hours
# Experimental: To examine if endothelial CD40 would be functional, cultured HAEC were plated at 5×10^4 cells/well in 6-well tissue culture plates (Nunc-Immuno™ Plate, Denmark) and incubated at 37° C. with human CD40L recombinant protein (CD40L, 0.5 ug/mL, kindly provided by Dr. Jean-Yves Bonnefoy, Glaxo Institute for Molecular Biology, Geneva) in fresh cultured media for eight hours, and cell-free supernatants were collected for IL-1β release assay. The assay for human IL-1β was performed in strict accordance with the manufacturer's instruction using the human Predicta™ IL-1β Kit (Genzyme). Absorbance at 450 nm was measured using a microplate spectrophotometer (SPECTRAmax 250, Molecular Devices, Sunnyvale, Calif.).
# A second group of cells was subjected to these same treatments and incubated with CD40L ([…]) for eight hours following the initial 48 hour treatment period. IL-1β release was then quantified using a human IL-1β ELISA kit as described in materials and methods.
# [6] = system: IFN-γ; test: IFN-γ secretion from HAEC, ELISA; type: cell-based, human
# Experimental: (§3) The assay for either IL-1β or IFN-γ was performed in strict accordance with the manufacturer's instructions for the respective assay kits.
# as §2
# (§4) The resulting cell culture media were assayed for IL-1β or IFN-γ using ELISA. […] The lowest effective concentration was determined to be 100 nM for IFN-γ ([…]). The lowest effective concentration was determined to be 100 nM for IFN-γ (p<0.01) and 1 μM for IL-1β (p<0.01).
# [7] = system: CD40; test: CD40 cell-surface expression on HAEC, flow cytometry; type: cell-based, human; conditions: Aβ 500 nM, IFN-γ 10 U/mL; vs control peptide or Aβ-free
# Experimental: Cultured HAEC were treated as described above. […] Cells were analyzed on a FACScan flow cytometer (Becton-Dickinson, Mountain View, Calif.) using LYSIS-II software. CD40-expressing cells are defined as percentage of CD40-staining cells minus the percentage of IgG1-staining cells.
# CD40 expression between control peptide-treated and Aβ-free AEC was relatively similar.
# [8] = system: CD40; test: CD40 expression in Aβ-treated N9 and N60 microglial cells, flow cytometry; type: cell-based, murine
# Source text: Mononuclear cells from AD patients secrete markedly higher levels of IFN-γ compared to age-matched controls (18).
# [9] = system: CD40; test: CD40 cell ELISA on cultured HAEC; type: cell-based, human; conditions: Aβ 50 nM to 10,000 nM; IFN-γ 5 to 500 U/mL; 48 hours
# Experimental: To determine if CD40 expression on cultured HAEC was IFN-γ or Aβ dose-dependent, CD40 cell ELISA assays were performed according to published procedures. Briefly, cultured HAEC were plated at 2×10^4 cells/well in flat-bottom, 96-well tissue culture plates (Nunc-Immuno™ Plate, Denmark). […] Other HAEC were treated with a dose range (5 U/mL to 500 U/mL) of IFN-γ. […] Forty-eight hours post-treatment, plates were fixed overnight at 4° C. in 1% paraformaldehyde diluted in 1×PBS, washed three times with wash buffer (0.5% Tween 20 in 1×PBS), and subsequently incubated with […] of blocking buffer (10% fetal bovine serum in wash buffer) for one hour at 37° C. Cells were then treated with purified anti-human CD40 antibody ([…], PharMingen, Los Angeles, Calif.) in […] of blocking buffer for one hour at 37° C. Plates were washed four times with wash buffer. Biotinylated anti-mouse IgG1 (PharMingen, Los Angeles, Calif.; 1:2,000 dilution in blocking buffer, […]) was added and incubated for one hour at 37° C., followed by the addition of […] of a 1:3,000 dilution of HRP-Streptavidin (ZYMED, San Francisco, Calif.) for thirty minutes at 37° C. Plates were washed 4× with wash buffer and developed for twenty minutes at room temperature using the 3, 3′, 5, 5′-tetramethylbenzidine (TMB) one-step substrate system (DAKO, Carpinteria, Calif.) followed by the addition of 100 μL/well of 2N H2SO4 to stop the reaction. Absorbance was measured at 450 nm using a microplate spectrophotometer (SPECTRAmax 250, Molecular Devices, Sunnyvale, Calif.).
# [10] = system: HAEC; test: Cytotoxicity in HAEC, LDH release assay; type: cell-based, human; conditions: 500 nM, 48 hours
# Experimental: Previous reports have shown that overexpression of amyloid precursor protein or exogenous addition of Aβ peptides can have cytotoxic effects on cultured endothelial cells.
# In order to determine if ligation of endothelial CD40 could result in production of pro-inflammatory cytokines, IL-1β was measured following treatment with IFN-γ or Aβ peptides. […] There was not observe a significant induction of endothelial cell death by LDH release assay between treatment groups during the time course examined by IL-1β release assay (by One-way ANOVA, F(6,41)=0.322, p=0.921), supporting the hypothesis that stimulation of the CD40 pathway in endothelial cells results in an early pro-inflammatory cascade which later promotes cell injury, rather than induce cytotoxicity acutely.
# [11] = system: IFN-γR; test: IFN-γR expression in HASM cells, cell-ELISA (CELISA); type: cell-based, human
# Experimental: as §1, §2
# [12] = system: IL-1β; test: IL-1β secretion from HAEC, ELISA; type: cell-based, human
# Experimental: as §3, §4
# [13] = system: neurons; conditions: exogenous, at levels similar to those produced by activated microglia; cited from earlier work
# [14] = system: cortical neurons; test: Cortical neurons incubated with treated N9 microglia, photomicrographs; type: cell-based, murine; conditions: Aβ1-42 250 nM, CD40L 0.5 μg/ml
# [15] = system: TNF-α; test: TNF-α release from cultured microglia, TNF-α ELISA; type: cell-based, mice; conditions: microglia pre-treated with 500 nM Aβ1-42
# [16] = system: primary cultured cortical neurons; test: Primary cultured microglia-mediated neuronal cell injury (micrographs, 51Cr release, LDH release); type: cell-based, mice; conditions: primary cultured microglia with cortical neurons
# Source text: CD45 positive cells (brown) are microglia, while neurofilament L-staining cells (red) are neurons. […] Results shown are from one of three independent experiments with similar results; FIG. 2E is a graph showing primary cultured microglia-mediated neuronal cell injury as evidenced by ^51Cr release. Data are reported as mean ^51Cr release values±1 SEM and n=9 for each condition presented. […] N=9 for each condition presented.
# Having shown that Aβ peptides activate microglia through the CD40 pathway, it was then investigated whether activation of Aβ-pretreated microglia by ligation of CD40 could mediate neuronal cell injury (23,24).
# [17] = increasing concentrations, 24 hours
molecule,measurement,setting,value
"Aβ1-40: amyloid β peptide 1-40, freshly solubilized","increase in CD40 expression vs control peptide or Aβ-free, Western",[1],~2 fold
same,"cell death, MTS assay, HAEC",[2],significant amount of cell death
same,IFN-γR expression in HAEC,[3]; 48 hours,neither Aβ1-40 nor Aβ25-35 modulate the IFN-γR expression
same,"CD40 expression in HAEC, dose dependence",[4],dose-dependently increase CD40 expression
same,lowest effective concentration for CD40 expression,[4]; HAEC,10 µM
same,IL-1β release following CD40 ligation,[5],synergistic effect
same,IL-1β release in the absence of CD40L stimulation,[5],not sufficient to elicit IL-1β
same,IFN-γ production at largest dose,"[6]; 20 μM, vs control",does induce a significant production of IFN-γ
same,"IFN-γ secretion, dose dependence",[6]; [17],does not show a dose-dependent effect
same,"CD40 cell-surface expression, flow cytometry",[7],significantly induce CD40 expression
same,CD40 expression on cultured microglial cells,"[8]; 250 nM freshly solubilized peptide, N9 and N60 cells, vs control peptide or Aβ-free",significantly induce CD40 expression
same,dose dependence of endothelial CD40,[9],marked increase in endothelial CD40 which is dose-dependent
same,"cell injury, LDH release",[10],no significant induction of cell injury
same,IFN-γR expression in HASM cells,[11]; 48 hours,induces a significant effect on IFN-γR
same,IFN-γR expression in HASM cells on CD40 ligation by mAb (3/23),"[11]; Aβ-treated cells, 1 μg/ml mAb, four hours",synergistic
same,IL-1β secretion at largest dose,[12]; 20 μM,has no effect
same,"IL-1β secretion, dose dependence",[12]; [17],does not show a dose-dependent effect
IFN-γ: Human IFN-γ recombinant protein (Genzyme),"increase in CD40 expression vs control peptide or Aβ-free, Western",[1],~2.5 fold
same,expression of IFN-γR on cytokine treatment,[3],up-regulate the expression of CD40 and IFN-γR
same,expression of CD40 on cytokine treatment,[4],up-regulate the expression of CD40 and IFN-γR
same,IL-1β release following CD40 ligation,[5],synergistic effect; also recorded: more pronounced than Aβ's effect
same,IL-1β release in the absence of CD40L stimulation,[5],not sufficient to elicit IL-1β
same,"CD40 cell-surface expression, flow cytometry",[7],significantly induce CD40 expression
same,effect of cytokine on Aβ-dependent CD40 expression,"[8]; low dose 10 U/mL, Aβ-challenged microglia",synergistically enhances Aβ-dependent CD40 expression
same,dose dependence of endothelial CD40,[9],dose-dependent induction of endothelial CD40
IL-1β: recombinant human cytokine,expression of IFN-γR on cytokine treatment,[3],up-regulate the expression of CD40 and IFN-γR
same,expression of CD40 on cytokine treatment,[4],up-regulate the expression of CD40 and IFN-γR
TNF-α,"neuronal injury and death, LDH release",[13],dose-dependently induces neuronal injury and death
B1,change in cortical neurons,[14],no change in cortical neurons
same,IL-1β release,[5]; CD40L and Aβ-free condition,approximately 50 pg/mg total protein
same,TNF-α release on addition of CD40L,[15],synergistically increases TNF-α release
same,neuronal degeneration / injury in micrographs,[16],not detectable
